The results in this text go back to US10295529B2, “Feline bitter taste receptors and methods” (Applied Food Biotechnology, Inc., priority 2013, dated 2019).

Type in all cases: cell-based, feline
Assay [1] relates to fTAS2R38. The assay can be described thus: Fluo-4AM calcium assay, cells transiently expressing fTAS2R38 with Gα16gust44. Here is the method:
(§1) Cell lines that transiently express a desired TAS2R disclosed herein are generated by transfecting the appropriate expression vector, e.g., pcDNA3.1D-FLAGV5His-TAS2R38, constructed as described above in Ex. 2A into cells of a eukaryotic cell line (e.g., ATCC #CRL-11268 or Life Technologies, Cat# R700-07).
(§2) On day 0, 60,000 cells per well are plated on poly lysine coated, black 96 well plates with clear bottoms (Costar). The following day the cells are transfected with 150 ng TAS2R38 expression vector, e.g., pcDNA3.1D-FLAGV5His (Invitrogen) along with 45 ng of Gα16 chimera containing the last 44 amino acids of rat gustducin (Gα16gust44) with 0.5 ul Lipofectamine 2000 (Invitrogen) per well. Cells are then incubated 22-44 hours at 37° C. 5% CO2.
(§3) The expression of fTAS2R38 is evaluated by testing for the presence of a functional response to a known hTAS2R38 ligand (e.g., PTC), determined via automated calcium imaging using a Fluo-4AM (Life Technologies Corporation) Calcium Assay. Fluo-4AM is a fluorescent indicator of intracellular calcium dynamics (change in concentration) and allows monitoring changes in the calcium concentration, particularly an increase in response to receptor activation occurring after agonist exposure.
(§4) Testing for a functional response of fTAS2R38 to the known hTAS2R38 ligands, PTC and PROP, and of fTAS2R43 to the known hTAS2R43 ligands, aloin, denatonium and saccharine), was determined via automated calcium imaging using the Fluo-4AM (Life Technologies Corporation) Calcium Assay.

The subject of assay [2] is fTAS2R38. The assay is described as follows: Fluo-4AM calcium assay, stable Gα16-gustducin 44/TAS2R38 cell line. The text has this:
Fluo-4AM is a fluorescent indicator of intracellular calcium dynamics (change in concentration) and allows monitoring changes in the calcium concentration, particularly an increase in response to receptor activation occurring after agonist exposure.

In the next assay the test system is fTAS2R43. The assay is described as follows: Fluo-4AM calcium assay, cells transiently expressing fTAS2R43 with Gα16gust44. The protocol: as §1, §2, §3
Generation of cell lines transiently expressing the other fTAS2Rs disclosed herein is analogous.
as §4

`CCCc1cc(=O)[nH]c(=S)[nH]1` [PROP, 6-n-propylthiouracil]: the stimulation of receptor entry in the assay with fTAS2R38 [1] (30 μM PROP, transient expression) was “not stimulated”. The “activation of cell line” value in the assay with fTAS2R38 [2] (30 μm PROP) is on record as “not activated”.

`NC(=S)Nc1ccccc1` [PTC, phenylthiocarbamide]: the activation over baseline turned out to be 81% in the assay with fTAS2R38 [1] (100 μM PTC, transient expression) and 90% with fTAS2R38 [2] (100 μM PTC).

With `CCCN(CCC)S(=O)(=O)c1ccc(C(=O)O)cc1` [probenecid, p-(dipropylsulfamoyl)benzoic acid], the “inhibition of the response to aloin” value in the assay with fTAS2R43 (1 mM probenecid, response of fTAS2R43 to aloin) is “inhibited”. In addition, the “inhibition of the response to denatonium” value with fTAS2R43 (1 mM probenecid, response of fTAS2R43 to denatonium) is “inhibited”. In addition, the “inhibition of the response to PTC” value with fTAS2R38 [1] (1 mM probenecid, response of fTAS2R38 to PTC) is recorded as “inhibited”.

As to `O=C1NS(=O)(=O)c2ccccc21` [saccharin], the stimulation of receptor result in the assay on fTAS2R43 (6.7 mM saccharin, transient expression) is “not stimulated”.
